Measurements from ChEMBL document CHEMBL3871263, “Arylthiosemicarbazones as antileishmanial agents” (Eur J Med Chem, 2016).

Tests used:
Leishmania donovani = test: Antileishmanial activity against intracellular amastigote stage of Leishmania donovani MHOM/ET/67/HU3 infected in human THP1 cells assessed as parasite growth measured after 72 hrs by luciferase reporter gene assay; format: functional, cell-based; settings: MHOM/ET/67/HU3, THP-1, 72 h
[1] = Cytotoxicity against human MRC5 cells assessed as reduction in cell growth measured after 72 hrs by MTT assay; format: toxicity, cell-based
[2] = Cytotoxicity against human THP1 cells assessed as reduction in cell growth measured after 72 hrs by MTT assay; format: toxicity, cell-based, THP-1
[3] = Selectivity index, ratio of EC50 for human MRC5 cells to EC50 for intracellular Leishmania donovani MHOM/ET/67/HU3 amastigotes; format: toxicity, cell-based; settings: read-out: Ratio EC50

Row | SMILES | EC50 (Leishmania donovani) [µM] | EC50 at 72 h [1] [µM] | EC50 at 72 h [2] [µM] | selectivity ratio [3]
1 | Cn1cc(/C=N/NC(N)=S)c2ccccc21 | > 10 | > 200 | > 200 | –
2 | Cn1ccc2cc(/C=N/NC(N)=S)ccc21 | > 10 | > 200 | > 200 | –
3 | CN(C)c1ccc(/C=N/N=C(/N)S)c2ccccc12 | 6.5 | > 200 | > 200 | > 30
4 | CCCCOc1ccc2cc(/C=N/NC(N)=S)ccc2c1 | 1.27 | 43 | 36 | 33.2
5 | NC(=S)N/N=C/c1ccc(F)c2ccccc12 | 0.8 | > 200 | 39 | > 250
6 | COCOc1c(/C=N/NC(N)=S)ccc2ccccc12 | 6.8 | 119 | 56 | 17.5
7 | COCOc1ccc2cc(/C=N/NC(N)=S)ccc2c1 | > 10 | 175 | > 200 | –
8 | NC(=S)N/N=C/c1cc2ccccc2c2ccccc12 | > 10 | 192 | > 200 | –
9 | NC(=S)N/N=C/c1c(OCC2CCCCC2)ccc2ccccc12 | > 10 | 33 | 28 | –
10 | CCOc1ccc(/C=N/NC(N)=S)c2ccccc12 | 7.2 | > 200 | > 200 | > 30
11 | NC(=S)N/N=C/c1cn(CCCc2ccccc2)c2ccccc12 | 4.1 | > 200 | 30 | > 50
12 | CCOc1ccc2cc(/C=N/NC(N)=S)ccc2c1 | 5.4 | > 200 | 30 | > 40
13 | NC(=S)N/N=C/c1cn(CC2CCCCC2)c2ccccc12 | 9 | 26 | 27 | 2.8
14 | NC(=S)N/N=C/c1ccc(OCC2CCCCC2)c2ccccc12 | 2.2 | 28.9 | 150 | 13.1
15 | Cc1ccc(/C=N/NC(N)=S)c2ccccc12 | 1.2 | 37 | 32 | 30.4
16 | NC(=S)N/N=C/c1ccc2ccccc2c1OCc1ccccc1 | 2.6 | 25 | 28 | 9.7
17 | CCCCOc1c(/C=N/NC(N)=S)ccc2ccccc12 | 1.4 | 86 | > 200 | 61.5

Row | SMILES | EC50 (Leishmania donovani) [µM] | EC50 at 72 h [1] [µM] | EC50 at 72 h [2] [µM] | selectivity ratio [3]
18 | COc1ccc2cc(/C=N/NC(N)=S)ccc2c1 | 9.3 | > 250 | 108 | > 20
19 | NC(=S)N/N=C/c1cn(Cc2ccccc2)c2ccccc12 | > 10 | 175 | 28 | –
20 | COc1ccc2c(OC)ccc(/C=N/NC(N)=S)c2c1 | 9 | > 200 | > 200 | > 20
21 | NC(=S)N/N=C/c1ccc(OCc2ccccc2)c2ccccc12 | 1.9 | 29 | 27 | 15.2
22 | NC(=S)N/N=C/c1c2ccccc2cc2ccccc12 | 5.3 | 45 | 67 | 8.5
23 | COCOc1ccc(/C=N/NC(N)=S)c2ccccc12 | > 10 | 126 | > 200 | –
24 | NC(=S)N/N=C/c1ccc2cc(OCc3ccccc3)ccc2c1 | 1.2 | 27 | 28 | 22.6
25 | COc1ccc(/C=N/NC(N)=S)c2ccccc12 | 5 | 42 | 47 | 8.4
26 | NC(=S)N/N=C/c1c(OCc2ccccc2)ccc2ccccc12 | 8.1 | 30 | 39 | 3.7
27 | Cc1cccc(Cn2cc(/C=N/NC(N)=S)c3ccccc32)c1 | 4.3 | 23 | 32 | 5.3
28 | CCCCOc1ccc(/C=N/NC(N)=S)c2ccccc12 | 2.1 | 41 | > 200 | 19.5
29 | NC(=S)N/N=C/c1ccc(-c2ccc(/C=N/NC(N)=S)cc2)cc1 | > 10 | > 200 | > 200 | –
30 | CCCCn1cc(/C=N/NC(N)=S)c2cccc(C)c21 | 9 | 31 | > 200 | 3.4
31 | Cn1c(/C=N/N=C(/N)S)cc2ccccc21 | > 10 | > 200 | > 200 | –
32 | COc1ccc2ccccc2c1/C=N/N=C(/N)S | > 10 | 126 | 109 | –
33 | C[C@@H]1[C@H](O)[C@@H](C)/C=C/C=C/C=C/C=C/C=C/C=C/C=C/[C@H](O[C@@H]2O[C@H](C)[C@@H](O)[C@H](N)[C@@H]2O)C[C@@H]2O[C@](O)(C[C@@H](O)C[C@@H](O)[C@H](O)CC[C@@H](O)C[C@@H](O)CC(=O)O[C@H]1C)C[C@H](O)[C@H]2C(=O)O [AMPHOTERICIN B] | – | 23 | 38 | –
